{"source": "patent US10314816B2", "about": "“Antimicrobial compounds, compositions and methods of use thereof” (Wisconsin Alumni Research Foundation, priority 2012, dated 2019)", "key": {"S. aureus FRI 100 [1]": {"system": "S. aureus FRI 100", "assay": "Minimum stationary-bactericidal concentration (MSC)", "type": "cell-based, Staphylococcus aureus", "settings": "for MSC: S. aureus FRI 100, stationary cells, 24 hours", "description": "Determination of the Minimum Stationary-Bactericidal Concentration.\nCultures of C. crescentus (24 hour incubation) and S. aureus cells (5 day incubation) were grown from single colonies. Cells were collected by centrifugation (8500 rpm for 2.5 minutes) and re-suspended in M2 salt solution (for C. crescentus; 1.74 g/L Na2HPO4, 1.06 g/L KH2PO4, and 0.5 g/L NH4Cl) or phosphate-buffered saline (for S. aureus; PBS, Fisher Scientific). The centrifugation and re-suspension was repeated two more times. After the repeated washing steps, the cell suspension was diluted 10-fold to achieve approximately 10^8 cells/mL. Aliquots of the diluted cell suspension were transferred into wells of a 96-well plate (100 μL/well), and 2-fold serial dilutions were performed to test a range of antibiotic concentrations. The plate was sealed with Parafilm® and incubated for 24 hours at room temperature in the dark. After incubation, 50 μl was removed from each well to spread on nutrient agar plates (1.5% agar in PYE for C. crescentus, and LB for S. aureus). The colonies on each plate were counted after growing the cells for 1-2 days. For determining the kinetics of bactericidal activity of DCAP on stationary cultures, the washed cells were diluted by 100-fold in appropriate solutions and tested using a single concentration of the compound while including a DMSO control sample. Cell suspensions were kept in closed microcentrifuge tubes instead of the wells of 96-well plates. 100 μL of the suspensions was removed for plating at each time point. All MSC experiments were performed in static conditions.\nIn addition to its activity against actively growing bacteria, DCAP kills cells in stationary phase (Table 3). This property was tested against C. crescentus and S. aureus. […] To ensure that bacteria were deprived of nutrients, the cells were grown into late stationary phase (i.e., 24 hours for C. crescentus and 5 days for S. aureus). These cells were collected, suspended in isotonic solutions devoid of amino acids or sugars, and treated with a small molecule (DMSO, DCAP, CCCP or ampicillin). Cell viability was measured over time by plating culture aliquots on non-selective, solid growth media. The minimum concentration of antibiotic required to completely eliminate colony formation was designated as the minimum stationary-bactericidal concentration (MSC). […] CCCP inhibited the proliferation of C. crescentus cells regardless of their physiological status. However, the MSC of CCCP for S. aureus was >300-fold higher than the MIC. This dramatic decrease in the effectiveness of CCCP in S. aureus may be due to changes in membrane composition as cells adjust their metabolism in nutrient-deprived conditions."}, "S. aureus FRI 100 [2]": {"system": "S. aureus FRI 100", "assay": "Minimum biofilm inhibitory concentration (bMIC)", "type": "cell-based, Staphylococcus aureus", "settings": "S. aureus FRI 100 biofilm", "description": "Determination of the minimum biofilm inhibitory concentration of growth (bMIC) and biofilm eradication concentration (MBEC). Overnight cultures of C. crescentus and S. aureus were grown and diluted 100-fold into appropriate nutrient media. Aliquots of the diluted suspension were transferred into wells of 96-well plates (150 μL/well). 2-fold serial dilutions were performed for compound-containing wells. For every experiment, three replicates for each compound concentration tested were included. After transferring aliquots of the suspension, the plates were closed with specialized lids that have protruding pins (Nunc STP System), and the plates were sealed using Parafilm®. The plates were incubated in a static incubator at 30° C. (C. crescentus) or 37° C. (S. aureus) for 24 hours. After the cells had formed biofilms on the surface of the pins, the pins were rinsed by dipping them in M2 (C. crescentus) or PBS (S. aureus) solutions. To rinse the pins, clean, sterile 96-well plates were used (aliquots of 200 μL/well); each rinse lasted 10 sec. After washing away planktonic cells loosely bound to biofilms, the pins were inserted into a 96-well plate that was pre-aliquoted with nutrient media containing antibiotics (2-fold dilutions, a final volume of 150 μL/well). The plates were sealed with Parafilm®, and incubated for 17 hours, and the bMIC was measured at the end of the incubation by visual inspection. […] The plates were sealed with Parafilm®, incubated for 24 hours, and the MBEC was measured at the end of the incubation by visual inspection.\nMembrane-active compounds are also efficient at eradicating biofilm-associated cells (Table 2). […] To determine the efficacy of antibiotics against biofilms, the minimum biofilm inhibitory concentration (bMIC) and the minimum biofilm eradication concentration (MBEC) were measured. […] After 24 hours of exposure to compounds, the lowest concentration of antibiotic that inhibited planktonic cell growth in the wells (bMIC) was determined."}, "C. crescentus CB15N": {"system": "C. crescentus CB15N", "assay": "Minimum biofilm eradication concentration (MBEC)", "type": "cell-based, Caulobacter crescentus", "description": "Determination of the minimum biofilm inhibitory concentration of growth (bMIC) and biofilm eradication concentration (MBEC). Overnight cultures of C. crescentus and S. aureus were grown and diluted 100-fold into appropriate nutrient media. Aliquots of the diluted suspension were transferred into wells of 96-well plates (150 μL/well). 2-fold serial dilutions were performed for compound-containing wells. For every experiment, three replicates for each compound concentration tested were included. After transferring aliquots of the suspension, the plates were closed with specialized lids that have protruding pins (Nunc STP System), and the plates were sealed using Parafilm®. The plates were incubated in a static incubator at 30° C. (C. crescentus) or 37° C. (S. aureus) for 24 hours. After the cells had formed biofilms on the surface of the pins, the pins were rinsed by dipping them in M2 (C. crescentus) or PBS (S. aureus) solutions. To rinse the pins, clean, sterile 96-well plates were used (aliquots of 200 μL/well); each rinse lasted 10 sec. After washing away planktonic cells loosely bound to biofilms, the pins were inserted into a 96-well plate that was pre-aliquoted with nutrient media containing antibiotics (2-fold dilutions, a final volume of 150 μL/well). The plates were sealed with Parafilm®, and incubated for 17 hours, and the bMIC was measured at the end of the incubation by visual inspection. After the bMIC run, the rinse steps were repeated to remove planktonic cells, and the pins were inserted into a 96-well plate that was pre-aliquoted with drug-free nutrient media (aliquots of 150 μL/well). The plates were sealed with Parafilm®, incubated for 24 hours, and the MBEC was measured at the end of the incubation by visual inspection.\nAfter performing bMIC experiments, biofilms growing on the pins of the lid were transferred to nutrient media devoid of antibiotics to measure the minimum concentration of antibiotic that prevented planktonic growth from biofilms in antibiotic-free nutrient media (MBEC). MBEC indicates whether the exposure to antimicrobial agent used during the bMIC experiment sterilized biofilm-associated cells. […] CCCP was the only effective antibiotic against S. aureus biofilms. Since CCCP was not as effective as DCAP at killing stationary cells, it was hypothesized that this variability in efficacy of membrane-active drugs is in part caused by changes in membrane composition (i.e., membrane proteins and lipid content) at different developmental stages of bacterial cells. […]"}}, "data": [{"smiles": "N#CC(C#N)=NNc1cccc(Cl)c1", "note": "[CCCP, carbonyl cyanide m-chlorophenyl hydrazone]", "values": [{"measurement": "MSC", "setting": "S. aureus FRI 100 [1]", "value": ">400", "unit": "µM"}, {"measurement": "MSC relative to MIC", "setting": "S. aureus FRI 100 [1]; S. aureus, stationary vs growing cells", "value": "> 300", "unit": "fold"}, {"measurement": "bMIC", "setting": "S. aureus FRI 100 [2]", "value": 2.5, "unit": "µM"}, {"measurement": "MBEC", "setting": "C. crescentus CB15N", "value": 5, "unit": "µM"}]}, {"smiles": "OCC(CO)(CO)NCC(O)Cn1c2ccc(Cl)cc2c2cc(Cl)ccc21", "note": "(centres unmarked) [DCAP, 2-((3-(3,6-dichloro-9H-carbazol-9-yl)-2-hydroxypropyl)amino)-2-(hydroxymethyl)propane-1,3-diol]", "values": [{"measurement": "MSC", "setting": "S. aureus FRI 100 [1]", "value": 75, "unit": "µM"}, {"measurement": "Minimum time required to obtain the MSC", "setting": "S. aureus FRI 100 [1]; S. aureus, data not shown", "value": 6, "unit": "h"}, {"measurement": "bMIC", "setting": "S. aureus FRI 100 [2]", "value": 100, "unit": "µM"}, {"measurement": "MBEC", "setting": "C. crescentus CB15N", "value": 40, "unit": "µM"}]}]}
